Key:
Digitaria adscendens [1] = experiment: Upland soil treatment (Test Example 2); type: in vivo; conditions: soil surface treatment next day after sowing, wettable powder, 1 kg active ingredient per hectare, evaluated 21st day after application
Procedure, shortened: (§1)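 Scored 21 days post-application on an index scale where higher values mean greater herbicidal effect on weeds and lower values mean greater crop safety. Treatment was a water-diluted wettable powder sprayed evenly onto the soil surface at 1 kg active ingredient per hectare, one day after seeding.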

Setaria viridis [2] = experiment: Upland soil treatment (Test Example 2); type: in vivo; conditions: soil surface treatment next day after sowing, wettable powder, 1 kg active ingredient per hectare, evaluated 21st day after application
Procedure, shortened: as §1

Stellaria media [3] = experiment: Upland soil treatment (Test Example 2); type: in vivo; conditions: soil surface treatment next day after sowing, wettable powder, 1 kg active ingredient per hectare, evaluated 21st day after application
Procedure, shortened: as §1

Chenopodium album [4] = experiment: Upland soil treatment (Test Example 2); type: in vivo; conditions: soil surface treatment next day after sowing, wettable powder, 1 kg active ingredient per hectare, evaluated 21st day after application
Procedure, shortened: as §1

Digitaria adscendens [5] = experiment: Upland field foliage treatment (Test Example 1); type: in vivo; conditions: foliage treatment 14th day after sowing, wettable powder, 1 kg active ingredient per hectare, evaluated 21st day after application
Procedure, shortened: (§2)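 Weeds and crops were sown in upland soil under about 1 cm cover, and a wettable powder diluted in water was sprayed on the foliage 14 days after sowing at 1 kg active ingredient per hectare. Scoring was done 21 days after application on an index scale, where higher weed scores mean stronger herbicidal effect and lower crop scores mean greater crop safety.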

Setaria viridis [6] = experiment: Upland field foliage treatment (Test Example 1); type: in vivo; conditions: foliage treatment 14th day after sowing, wettable powder, 1 kg active ingredient per hectare, evaluated 21st day after application
Procedure, shortened: as §2

Stellaria media [7] = experiment: Upland field foliage treatment (Test Example 1); type: in vivo; conditions: foliage treatment 14th day after sowing, wettable powder, 1 kg active ingredient per hectare, evaluated 21st day after application
Procedure, shortened: as §2

Chenopodium album [8] = experiment: Upland field foliage treatment (Test Example 1); type: in vivo; conditions: foliage treatment 14th day after sowing, wettable powder, 1 kg active ingredient per hectare, evaluated 21st day after application
Procedure, shortened: as §2

soybean (Glycine max) [9] = experiment: Upland soil treatment (Test Example 2), crop; type: in vivo; conditions: soil surface treatment next day after sowing, 1 kg active ingredient per hectare, evaluated 21st day, lower index = higher safety
Procedure, shortened: as §1

[10] = tested on: wheat (Triticum aestivum); experiment: Upland soil treatment (Test Example 2), crop; type: in vivo; conditions: soil surface treatment next day after sowing, 1 kg active ingredient per hectare, evaluated 21st day, lower index = higher safety
Procedure, shortened: as §1

soybean (Glycine max) [11] = experiment: Upland field foliage treatment (Test Example 1), crop; type: in vivo; conditions: foliage treatment 14th day after sowing, 1 kg active ingredient per hectare, evaluated 21st day, lower index = higher safety
Procedure, shortened: as §2

[12] = tested on: wheat (Triticum aestivum); experiment: as above; type: in vivo; conditions: foliage treatment 14th day after sowing, 1 kg active ingredient per hectare, evaluated 21st day, lower index = higher safety
Procedure, shortened: as §2

Monochoria vaginalis = experiment: Paddy field treatment (Test Example 3); type: in vivo; conditions: paddy pot, submerged 4 cm, dropped on water surface 10th day after transplantation, 1 kg active ingredient per hectare, evaluated 21st day
Procedure, shortened: (§3)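 Weeds sown in puddled paddy soil under 4 cm water, with two-leaf Koshihikari rice transplanted at 3 cm depth. On day 10 after transplanting, wettable powder applied to the water surface at 1 kg active ingredient per hectare. Herbicidal effect and crop safety scored on an index 21 days later.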

Ammannia multiflora = experiment: Paddy field treatment (Test Example 3); type: in vivo; conditions: paddy pot, submerged 4 cm, dropped on water surface 10th day after transplantation, 1 kg active ingredient per hectare, evaluated 21st day
Procedure, shortened: as §3

Scirpus juncoides = experiment: Paddy field treatment (Test Example 3); type: in vivo; conditions: paddy pot, submerged 4 cm, dropped on water surface 10th day after transplantation, 1 kg active ingredient per hectare, evaluated 21st day
Procedure, shortened: as §3

[13] = tested on: rice (Oryza sative, variety: Koshihikari); experiment: Paddy field treatment (Test Example 3), crop; type: in vivo, Oryza sativa; conditions: transplanted rice two-leaf period, water surface treatment 10th day after transplantation, 1 kg active ingredient per hectare, evaluated 21st day, lower index = higher safety
Procedure, shortened: as §3

Echinochloa spp. = experiment: Paddy field treatment (Test Example 3); type: in vivo, Echinochloa crusgalli; conditions: paddy pot, submerged 4 cm, dropped on water surface 10th day after transplantation, 1 kg active ingredient per hectare, evaluated 21st day
Procedure, shortened: as §3

| SMILES | Herbicidal activity Digitaria adscendens (Digitaria adscendens [1]) | Herbicidal activity Setaria viridis (Setaria viridis [2]) | Herbicidal activity Stellaria media (Stellaria media [3]) | Herbicidal activity Chenopodium album (Chenopodium album [4]) | Herbicidal activity Digitaria adscendens (Digitaria adscendens [5]) | Herbicidal activity Setaria viridis (Setaria viridis [6]) | Herbicidal activity Stellaria media (Stellaria media [7]) | Herbicidal activity Chenopodium album (Chenopodium album [8]) | Herbicidal activity Glycine max (soybean (Glycine max) [9]) | Herbicidal activity Triticum aestivum [10] | Herbicidal activity Glycine max (soybean (Glycine max) [11]) | Herbicidal activity Triticum aestivum [12] | Herbicidal activity Monochoria vaginalis (Monochoria vaginalis) | Herbicidal activity Ammannia multiflora (Ammannia multiflora) | Herbicidal activity Scirpus juncoides (Scirpus juncoides) | Herbicidal activity Oryza sativa [13] | Herbicidal activity Echinochloa spp. (Echinochloa spp.) |
| --- | --- | --- | --- | --- | --- | --- | --- | --- | --- | --- | --- | --- | --- | --- | --- | --- | --- |
| COC=C(Cn1nc(-c2cccc(C)c2)c(Br)c1C)C(=O)OC [Compound 26] | 4 (herbicidal effect of not less than 70% by weight and less than 90% by weight) | 4 (herbicidal effect of not less than 70% by weight and less than 90% by weight) | 4 (herbicidal effect of not less than 70% by weight and less than 90% by weight) | 4 (herbicidal effect of not less than 70% by weight and less than 90% by weight) | 5 (herbicidal effect of not less than 90% by weight) | 4 (herbicidal effect of not less than 70% by weight and less than 90% by weight) | 5 (herbicidal effect of not less than 90% by weight) | 5 (herbicidal effect of not less than 90% by weight) | 0 (herbicidal effect of not less than 0% by weight and less than 10% by weight) | 0 (herbicidal effect of not less than 0% by weight and less than 10% by weight) | 1 (herbicidal effect of not less than 10% by weight and less than 30% by weight) | 0 (herbicidal effect of not less than 0% by weight and less than 10% by weight) | 5 (herbicidal effect of not less than 90% by weight) | 5 (herbicidal effect of not less than 90% by weight) | 4 (herbicidal effect of not less than 70% by weight and less than 90% by weight) | 0 (herbicidal effect of not less than 0% by weight and less than 10% by weight) | 5 (herbicidal effect of not less than 90% by weight) |
| COC=C(Cn1nc(-c2cc(Cl)ccc2Cl)cc1C)C(=O)OC [Compound 8] | 4 (herbicidal effect of not less than 70% by weight and less than 90% by weight) | 4 (herbicidal effect of not less than 70% by weight and less than 90% by weight) | 4 (herbicidal effect of not less than 70% by weight and less than 90% by weight) | 4 (herbicidal effect of not less than 70% by weight and less than 90% by weight) | 5 (herbicidal effect of not less than 90% by weight) | 4 (herbicidal effect of not less than 70% by weight and less than 90% by weight) | 5 (herbicidal effect of not less than 90% by weight) | 5 (herbicidal effect of not less than 90% by weight) | 0 (herbicidal effect of not less than 0% by weight and less than 10% by weight) | 0 (herbicidal effect of not less than 0% by weight and less than 10% by weight) | 0 (herbicidal effect of not less than 0% by weight and less than 10% by weight) | 0 (herbicidal effect of not less than 0% by weight and less than 10% by weight) | 5 (herbicidal effect of not less than 90% by weight) | 5 (herbicidal effect of not less than 90% by weight) | 4 (herbicidal effect of not less than 70% by weight and less than 90% by weight) | 0 (herbicidal effect of not less than 0% by weight and less than 10% by weight) | 4 (herbicidal effect of not less than 70% by weight and less than 90% by weight) |
| COC=C(Cn1cc(Cl)c(-c2cccc(OC)c2)n1)C(=O)OC [Compound 16] | 5 (herbicidal effect of not less than 90% by weight) | 5 (herbicidal effect of not less than 90% by weight) | 5 (herbicidal effect of not less than 90% by weight) | 4 (herbicidal effect of not less than 70% by weight and less than 90% by weight) | 5 (herbicidal effect of not less than 90% by weight) | 5 (herbicidal effect of not less than 90% by weight) | 5 (herbicidal effect of not less than 90% by weight) | 5 (herbicidal effect of not less than 90% by weight) | 0 (herbicidal effect of not less than 0% by weight and less than 10% by weight) | 0 (herbicidal effect of not less than 0% by weight and less than 10% by weight) | 1 (herbicidal effect of not less than 10% by weight and less than 30% by weight) | 0 (herbicidal effect of not less than 0% by weight and less than 10% by weight) | 5 (herbicidal effect of not less than 90% by weight) | 5 (herbicidal effect of not less than 90% by weight) | 5 (herbicidal effect of not less than 90% by weight) | 0 (herbicidal effect of not less than 0% by weight and less than 10% by weight) | 5 (herbicidal effect of not less than 90% by weight) |
| COC=C(Cn1cc(C)c(-c2ccc(F)cc2)n1)C(=O)OC [Compound 14] | 5 (herbicidal effect of not less than 90% by weight) | 5 (herbicidal effect of not less than 90% by weight) | 5 (herbicidal effect of not less than 90% by weight) | 5 (herbicidal effect of not less than 90% by weight) | 5 (herbicidal effect of not less than 90% by weight) | 5 (herbicidal effect of not less than 90% by weight) | 5 (herbicidal effect of not less than 90% by weight) | 5 (herbicidal effect of not less than 90% by weight) | 0 (herbicidal effect of not less than 0% by weight and less than 10% by weight) | 0 (herbicidal effect of not less than 0% by weight and less than 10% by weight) | 0 (herbicidal effect of not less than 0% by weight and less than 10% by weight) | 0 (herbicidal effect of not less than 0% by weight and less than 10% by weight) | 5 (herbicidal effect of not less than 90% by weight) | 5 (herbicidal effect of not less than 90% by weight) | 5 (herbicidal effect of not less than 90% by weight) | 0 (herbicidal effect of not less than 0% by weight and less than 10% by weight) | 5 (herbicidal effect of not less than 90% by weight) |

From patent publication US6809065B2, “Herbicide containing substituted pyrazole derivative as active ingredient” (SDS Biotech K.K., priority 2001, dated 2004)
